Results as given in patent publication US20160166572A1, “BENEFICIAL EFFECTS OF Lp-PLA2 INHIBITORS IN TREATMENT OF DIABETIC RETINOPATHY AND AGE-RELATED MACULAR DEGENERATION” (Rowan University, priority 2014, published 2016).

Test system: occludin
Assay: Occludin gene expression in cerebral cortex (RT-PCR, beta-actin reference), DMHC pigs
Type: in vivo, pig
Conditions: Darapladib 10 mg/kg/d orally, 24 weeks, rank among treatment groups, FIG. 8B
Method: Briefly, after induction of diabetes by a single injection of Streptozotocin, animals were fed a high cholesterol diet. After a month of DMHC induction and acclimation, animals were randomly segregated to untreated DMHC and Darapladib-treated DMHC groups. Darapladib-treated pigs received 10 mg/kg/d of Darapladib orally. Three of the pigs were spared from DMHC induction and served as age-matched, non-DMHC normal controls. Twenty four weeks after acclimation, animals were euthanized and their brains and eyes were immediately removed. Brains were divided anteroposteriorly into anterior, middle and posterior regions. […]
Relative quantification of claudin5 and occludin gene expression was carried out using the reporter dye SYBR green and Applied Biosystems 7500 real time polymerase chain reaction (RT-PCR) system. […] Relative quantification of the claudin5 and occludin gene expression was conducted using beta actin (β-actin), a house keeping gene, as a standard. The amplification profiles of all samples were analyzed using Applied Biosystems software. […]
Changes in claudin 5 and occludin gene expression in response to DMHC and Darapladib treatment were assessed in the middle brain region only of the pig cerebral cortex by real-time polymerase chain reaction (RT-PCR) using beta-actin as a reference (FIG. 8).

Which “occludin gene expression, middle brain region of cerebral cortex” value does the source give for CCN(CC)CCN(Cc1ccc(-c2ccc(C(F)(F)F)cc2)cc1)C(=O)Cn1c(SCc2ccc(F)cc2)nc(=O)c2c1CCC2 [Darapladib] here?
Its value is “highest claudin5 and occludin levels”.
